Measured values published in patent US10227310B2, “Ghrelin 0-acyl transferase inhibitors” (Eli Lilly and Company, priority 2015, dated 2019).

How the values were obtained:
human GOAT = human GOAT (Homo sapiens (Human), UniProt Q96T53); test: In vitro cell free human GOAT enzymatic assay; assay type: biochemical; details: cell free human GOAT enzyme, ELISA readout of acyl-ghrelin
Experimental: Human GOAT gene (Accession number: NM_001100916) is subcloned to pAN51 baculoviral expression vector. Baculovirus stock is prepared following the Bac-to-Bac Protocol provided by the vendor, Invitrogen, California, USA. Five mililiters of human GOAT baculoviral stock are added to 500 mL Sf9 cells in HyQ SFX-Insect™ media (HyClone catalog number SH30278.02) at the density of 1×10^6 cells per milliliter in a 2 L Erlenmeyer flask. The flask with human GOAT gene infected Sf9 cells is put on a plate shaker at 120 rpm at 28° C. for 48 h. After 48 h incubation, cells are centrifuged at 1,000×g for 10 min at 4° C. The cell pellets are collected and stored at −80° C. in a freezer until ready for further processing.
Preparation of Microsomal Membrane of GOAT Enzyme for the Enzymatic Assay:
One gram cell pellets are suspended in 9 mL chilled homogenization buffer (50 mM Tris-HCl, 250 mM sucrose, adjusted to pH 7.5, and sterile filtered through 0.2 μm Millipore filter). The cell suspension is transferred to a Dounce glass homogenizer. Cell pellets are homogenized with 40 strokes on ice. The homogenate is centrifuged at 3,000 rpm in a Beckman swing bucket rotor at 4° C. for 10 min to remove unbroken cells. The supernatant is collected and centrifuged at 40,000×g for 1 h at 4° C. The resulting membrane pellet is suspended in the homogenization buffer using a Dounce glass homogenizer and stored at −20° C. in the freezer for the assay. For long term storage of the human GOAT enzyme membrane preparation, the suspended membrane is stored in a −80° C. freezer.
Human GOAT Enzymatic Assay Protocol:
Prepare test compounds in DMSO to make up a 0.2 mM stock solution. Serially dilute the stock solution in DMSO for ten concentrations with final compound concentrations ranging from 10 μM to 0.5 nM in a 96-well round-bottom plate. Prepare enzyme and substrate solutions in assay buffer (0.02% TWEEN™-20 in 50 mM Tris, pH 7.5 containing 250 mM sucrose, 1 mg/mL BSA and 10 mM EDTA). Add diluted compound (1 μL) to each well of row A to N of a corresponding low protein binding 384 well plate. […] Incubate the mixture for 1 h at RT on a gently rotating oscillator. Add 4 M guanidine hydrochloride (20 μL) to all wells, mix, and incubate for 3 h to stop the reaction.
Aspirate the blocking buffer from ELISA plate and add blocking buffer (23 μL) to columns 1-24, rows A-N. Reserve rows O and P for the acylghrelin standard curve. Add the reaction mixture (2 μL) to the ELISA plates. […] Incubate the reaction mixture or biotin-labeled AG standard in the ELISA plate overnight at 4° C. The following day, wash the plate 3× with wash buffer (0.1% TWEEN™-20/PBS, 100 μL per well in each wash cycle). […] Wash the plate 3× with the wash buffer, similarly to the previous step. Add Protein G-HRP (25 μL) (Southern Biotech) diluted 3,000× in blocking buffer and incubate 1 h at RT. Wash the late 3× with wash buffer, as in the previous steps. Add TMB reagent (25 μL) (Kirkegaard & Perry Laboratories, Inc.) to each well and let develop for 20 min and stop with 1 M phosphoric acid (25 μL per well). Read plates at 450 nm using an ENVISION® Multilabel plate reader. AG levels are calculated versus a fitted standard curve and percent inhibition calculated.

GOAT enzyme = GOAT enzyme (Mus musculus (Mouse), UniProt P0C7A3); test: In vivo dose dependent 3 day BID study for GOAT inhibitor (plasma AG, UAG by ELISA); parameters: species or system male C57BL/6 mice; details: mice; for decrease of plasma AG / increase of UAG / reduction in AG to total ghrelin ratio: 3 days; for decrease of plasma AG / increase of UAG: vs vehicle; for reduction in AG to total ghrelin ratio: vs vehicle-treated control animals; for AG (% of control) / AG/Total-ghrelin (% of vehicle control) / UAG (% of vehicle control): plasma
Sequence of GOAT enzyme (P0C7A3 whole entry): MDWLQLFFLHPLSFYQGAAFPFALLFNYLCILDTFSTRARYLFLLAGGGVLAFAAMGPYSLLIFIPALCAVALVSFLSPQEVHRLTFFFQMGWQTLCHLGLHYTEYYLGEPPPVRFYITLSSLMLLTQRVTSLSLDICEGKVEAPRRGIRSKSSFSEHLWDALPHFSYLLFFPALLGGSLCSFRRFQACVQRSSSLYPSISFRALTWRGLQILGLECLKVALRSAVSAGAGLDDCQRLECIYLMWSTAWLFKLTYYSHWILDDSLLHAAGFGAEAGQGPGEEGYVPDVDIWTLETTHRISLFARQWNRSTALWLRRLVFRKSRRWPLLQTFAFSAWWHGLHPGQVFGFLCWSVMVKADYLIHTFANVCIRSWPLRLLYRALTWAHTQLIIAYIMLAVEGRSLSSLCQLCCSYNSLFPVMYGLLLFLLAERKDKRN
Experimental: Comparing the change in the ratio of AG to total ghrelin in the compound treated group and that of the vehicle treated group reflects the degree of GOAT enzyme inhibition in vivo, due to the dynamic processing of UAG to AG by the GOAT enzyme. In the in vivo pharmacodynamic studies herein, the levels of AG and UAG in plasma and stomach in the vehicle and compound treated groups are measured by ELISA specifically to these two analytes. The total ghrelin level of each sample is computed as the sum of AG and UAG by these ELISA measurements. The ratio of AG to total ghrelin is defined by the level of AG in each sample divided by the level of total ghrelin in the same sample. The levels of AG, UAG and ratio of AG to total ghrelin in the vehicle treated group is computed and set as 100%. The relative change of these parameters in the compound treated group is then computed to determine the effectiveness of the test compound.
Purchase male C57BL/6 mice from Harlan (Indianapolis, Ind.) at 9 weeks of age. House the mice individually in a temperature-controlled (24° C.) facility with a 12 h light/dark cycle (lights on 2200 h), and allow free access to a standard rodent chow (diet 2014, Harlan) and water. Typically, use the mice when they are 10-13 weeks of age at the time of the study. On day 0 of the experiment, randomize the mice into treatment groups (N=7/group) so each group has similar mean body weights. On day 1 and day 2, treat the animals with vehicle (1% hydroxyethylcellulose, 0.25% TWEEN™ 80, 0.05% antifoam) or test compound prepared in the vehicle as suspension at various dosages by oral gavage at 7 am and 7 pm. On day 3, fast the animals, move them into clean cages and dose with vehicle or the test compound again at 8 am by oral gavage. That same day at 1 pm, sacrifice the animals by decapitation to collect blood. For details of blood collection and plasma treatments see Blood collection and Extraction of Ghrelin from Plasma section below.
Collect approximately 600 μL blood into a pre-weighed EDTA tube containing 600 μL (defined as Vpreservative) freshly-prepared preservative (4 mM PEFABLOC® [4-(2-aminoethyl) benzenesulfonyl fluoride hydrochloride], 72 mM NaCl, 58 mM NaF, 0.032 N hydrochloric acid, pH 3.0) and mix immediately. Weigh the tube again and keep on ice. To accurately determine the exact blood volume of each sample using this blood collection procedure, the weight of the blood for each mouse is computed using the following equation: Weight of Blood=(Weight of the tube containing Blood+preservative)−(Weight of the tube containing preservative) Blood volume(Vblood)=(Weight of blood)/1.06
Within 15 minutes after the blood collection, samples are centrifuged at 5000 rpm at 4° C. for 8 min. Remove plasma (650 μL) to a 5 mL glass tube containing 1 N hydrochloric acid (65 μL), mix and keep on ice.
AG and UAG are extracted from plasma using SEP-PAK® C18 column to remove interference prior to performing the ELISA. The solid phase extraction of AG and UAG peptides by SEP-PAK® C18 columns can be performed on a vacuum manifold (Waters Corp) or using a peristaltic pump. The sample SEP-PAK® column extraction procedure is independently applied to the plasma sample obtained from each individual mouse. The general extraction protocol is described as follows.
All solutions used for the entire protocol of the SEP-PAK® column extraction should be at ice cold condition. Wet SEP-PAK®_columns (WAT054960, Waters Corp, Milford Mass.) with 99.9% ACN/0.1% TFA (1 mL of solution of 100 mL ACN/0.1 mL TFA). […] Once liquid is removed from the column, stop the pressure. Equilibrate the columns with 3% ACN/0.1% TFA (1 mL of 97 mL water, 3 mL ACN, 0.1 mL TFA). […] Dilute approximately 650 μL acidified plasma (defined as Vplasma added to column) to 1.4 mL ice cold 0.1% TFA. Load all diluted acidified plasma from the previous step onto the columns. […]

Sequence of human GOAT (Q96T53 whole entry): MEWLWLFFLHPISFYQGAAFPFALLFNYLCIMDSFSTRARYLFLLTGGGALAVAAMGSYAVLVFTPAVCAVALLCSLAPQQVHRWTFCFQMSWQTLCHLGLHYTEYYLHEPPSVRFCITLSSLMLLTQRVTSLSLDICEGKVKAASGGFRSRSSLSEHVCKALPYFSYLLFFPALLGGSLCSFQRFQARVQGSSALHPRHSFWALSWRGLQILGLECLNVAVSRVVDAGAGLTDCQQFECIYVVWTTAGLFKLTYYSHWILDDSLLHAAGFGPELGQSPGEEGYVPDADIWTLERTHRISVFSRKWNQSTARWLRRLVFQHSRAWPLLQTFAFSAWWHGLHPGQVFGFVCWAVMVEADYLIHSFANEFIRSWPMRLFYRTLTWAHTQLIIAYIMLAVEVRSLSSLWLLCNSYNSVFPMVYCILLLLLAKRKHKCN

SMILES: Cc1nc(Cl)nc(N)c1CCC1CCN(C(=O)[C@H](C)NC(=O)c2cn[nH]c2C)CC1 [Example 2, N-[(1S)-2-[4-[2-(4-Amino-2-chloro-6-methyl-pyrimidin-5-yl)ethyl]-1-piperidyl]-1-methyl-2-oxo-ethyl]-5-methyl-1H-pyrazole-4-carboxamide]
- IC50 (human GOAT): 54.4 nM

SMILES: Cc1nc(N)c(CCC2CCCN(C(=O)[C@H](C)NC(=O)c3ccncc3)CC2)c(Cl)n1 (stereo partly drawn) [Example 37, N-[(1S)-2-[(4R,S)-4-[2-(4-Amino-6-chloro-2-methyl-pyrimidin-5-yl)ethyl]azepan-1-yl]-1-methyl-2-oxo-ethyl] pyridine-4-carboxamide]
- IC50 (human GOAT): 574 nM

SMILES: Cc1nc(N)c(CCC2CCN(C(=O)[C@H](C)NC(=O)c3cnc(C)s3)CC2)c(Cl)n1 [Example 42, N-[(1S)-2-[4-[2-(4-Amino-6-chloro-2-methyl-pyrimidin-5-yl)ethyl]-1-piperidyl]-1-methyl-2-oxo-ethyl]-2-methyl-thiazole-5-carboxamide]
- decrease of plasma AG (GOAT enzyme; 0.3 mg/kg): 51%
- increase of UAG (GOAT enzyme; 0.3 mg/kg): 1.61 fold
- reduction in AG to total ghrelin ratio (GOAT enzyme; 0.3 mg/kg): 61%
- decrease of plasma AG (GOAT enzyme; 1 mg/kg): 57%
- increase of UAG (GOAT enzyme; 1 mg/kg): 2.04 fold
- reduction in AG to total ghrelin ratio (GOAT enzyme; 1 mg/kg): 73%
- decrease of plasma AG (GOAT enzyme; 3 mg/kg): 70%
- increase of UAG (GOAT enzyme; 3 mg/kg): 2.00 fold
- reduction in AG to total ghrelin ratio (GOAT enzyme; 3 mg/kg): 81%
- AG (% of control) (GOAT enzyme; 0.3 mg/kg oral BID 3 days): 49 ± 7 (n = 7) % of control
- AG/Total-ghrelin (% of vehicle control) (GOAT enzyme; 0.3 mg/kg oral BID 3 days): 39 ± 2 (n = 7) % of vehicle control
- UAG (% of vehicle control) (GOAT enzyme; 0.3 mg/kg oral BID 3 days): 161 ± 24 (n = 7) % of vehicle control
- AG (% of control) (GOAT enzyme; 1 mg/kg oral BID 3 days): 43 ± 6 (n = 7) % of control
- AG/Total-ghrelin (% of vehicle control) (GOAT enzyme; 1 mg/kg oral BID 3 days): 27 ± 1 (n = 7) % of vehicle control
- UAG (% of vehicle control) (GOAT enzyme; 1 mg/kg oral BID 3 days): 204 ± 24 (n = 7) % of vehicle control
- AG (% of control) (GOAT enzyme; 3 mg/kg oral BID 3 days): 30 ± 4 (n = 7) % of control
- AG/Total-ghrelin (% of vehicle control) (GOAT enzyme; 3 mg/kg oral BID 3 days): 19 ± 1 (n = 7) % of vehicle control
- UAG (% of vehicle control) (GOAT enzyme; 3 mg/kg oral BID 3 days): 200 ± 20 (n = 7) % of vehicle control
- IC50 (human GOAT): 96.4 ± 28.3 nM

SMILES: Cc1nc(N)c(CCC2CCN(C(=O)[C@H](C)NC(=O)c3ccnn3C)CC2)c(Cl)n1 [Example 66, N-[(1S)-2-[4-[2-(4-Amino-6-chloro-2-methyl-pyrimidin-5-yl)ethyl]-1-piperidyl]-1-methyl-2-oxo-ethyl]-2-methyl-pyrazole-3-carboxamide]
- decrease of plasma AG (GOAT enzyme; 0.2 mg/kg): 34%
- increase of UAG (GOAT enzyme; 0.2 mg/kg): 2.13 fold
- reduction in AG to total ghrelin ratio (GOAT enzyme; 0.2 mg/kg): 50%
- decrease of plasma AG (GOAT enzyme; 0.6 mg/kg): 52%
- increase of UAG (GOAT enzyme; 0.6 mg/kg): 2.61 fold
- reduction in AG to total ghrelin ratio (GOAT enzyme; 0.6 mg/kg): 65%
- decrease of plasma AG (GOAT enzyme; 2 mg/kg): 72%
- increase of UAG (GOAT enzyme; 2 mg/kg): 2.92 fold
- reduction in AG to total ghrelin ratio (GOAT enzyme; 2 mg/kg): 79%
- decrease of plasma AG (GOAT enzyme; 6 mg/kg): 79%
- increase of UAG (GOAT enzyme; 6 mg/kg): 3.02 fold
- reduction in AG to total ghrelin ratio (GOAT enzyme; 6 mg/kg): 84%
- decrease of plasma AG (GOAT enzyme; 18 mg/kg): 81%
- increase of UAG (GOAT enzyme; 18 mg/kg): 2.79 fold
- reduction in AG to total ghrelin ratio (GOAT enzyme; 18 mg/kg): 86%
- AG (% of control) (GOAT enzyme; 0.2 mg/kg oral BID 3 days): 66 ± 12 (n = 7) % of control
- AG/Total-ghrelin (% of vehicle control) (GOAT enzyme; 0.2 mg/kg oral BID 3 days): 50 ± 3 (n = 7) % of vehicle control
- UAG (% of vehicle control) (GOAT enzyme; 0.2 mg/kg oral BID 3 days): 213 ± 27 (n = 7) % of vehicle control
- AG (% of control) (GOAT enzyme; 0.6 mg/kg oral BID 3 days): 48 ± 4 (n = 7) % of control
- AG/Total-ghrelin (% of vehicle control) (GOAT enzyme; 0.6 mg/kg oral BID 3 days): 35 ± 1 (n = 7) % of vehicle control
- UAG (% of vehicle control) (GOAT enzyme; 0.6 mg/kg oral BID 3 days): 261 ± 30 (n = 7) % of vehicle control
- AG (% of control) (GOAT enzyme; 2 mg/kg oral BID 3 days): 28 ± 3 (n = 14) % of control
- AG/Total-ghrelin (% of vehicle control) (GOAT enzyme; 2 mg/kg oral BID 3 days): 21 ± 1 (n = 14) % of vehicle control
- UAG (% of vehicle control) (GOAT enzyme; 2 mg/kg oral BID 3 days): 292 ± 43 (n = 14) % of vehicle control
- AG (% of control) (GOAT enzyme; 6 mg/kg oral BID 3 days): 21 ± 3 (n = 7) % of control
- AG/Total-ghrelin (% of vehicle control) (GOAT enzyme; 6 mg/kg oral BID 3 days): 16 ± 1 (n = 7) % of vehicle control
- UAG (% of vehicle control) (GOAT enzyme; 6 mg/kg oral BID 3 days): 302 ± 48 (n = 7) % of vehicle control
- AG (% of control) (GOAT enzyme; 18 mg/kg oral BID 3 days): 19 ± 6 (n = 7) % of control
- AG/Total-ghrelin (% of vehicle control) (GOAT enzyme; 18 mg/kg oral BID 3 days): 14 ± 2 (n = 7) % of vehicle control
- UAG (% of vehicle control) (GOAT enzyme; 18 mg/kg oral BID 3 days): 279 ± 36 (n = 7) % of vehicle control
- IC50 (human GOAT): 68.9 ± 23.6 nM

SMILES: COC(=O)N[C@@H](C)C(=O)N1CCC(CCc2c(N)nc(C)nc2Cl)CC1 [Example 71, Methyl N-[(1S)-2-[4-[2-(4-amino-6-chloro-2-methyl-pyrimidin-5-yl)ethyl]-1-piperidyl]-1-methyl-2-oxo-ethyl]carbamate]
- decrease of plasma AG (GOAT enzyme; 0.3 mg/kg): 13%
- increase of UAG (GOAT enzyme; 0.3 mg/kg): 2.87 fold
- reduction in AG to total ghrelin ratio (GOAT enzyme; 0.3 mg/kg): 59%
- decrease of plasma AG (GOAT enzyme; 1 mg/kg): 37%
- increase of UAG (GOAT enzyme; 1 mg/kg): 3.44 fold
- reduction in AG to total ghrelin ratio (GOAT enzyme; 1 mg/kg): 73%
- decrease of plasma AG (GOAT enzyme; 3 mg/kg): 66%
- increase of UAG (GOAT enzyme; 3 mg/kg): 2.90 fold
- reduction in AG to total ghrelin ratio (GOAT enzyme; 3 mg/kg): 82%
- AG (% of control) (GOAT enzyme; 0.3 mg/kg oral BID 3 days): 87 ± 18 (n = 7) % of control
- AG/Total-ghrelin (% of vehicle control) (GOAT enzyme; 0.3 mg/kg oral BID 3 days): 41 ± 3 (n = 7) % of vehicle control
- UAG (% of vehicle control) (GOAT enzyme; 0.3 mg/kg oral BID 3 days): 287 ± 43 (n = 7) % of vehicle control
- AG (% of control) (GOAT enzyme; 1 mg/kg oral BID 3 days): 63 ± 15 (n = 7) % of control
- AG/Total-ghrelin (% of vehicle control) (GOAT enzyme; 1 mg/kg oral BID 3 days): 27 ± 2 (n = 7) % of vehicle control
- UAG (% of vehicle control) (GOAT enzyme; 1 mg/kg oral BID 3 days): 344 ± 63 (n = 7) % of vehicle control
- AG (% of control) (GOAT enzyme; 3 mg/kg oral BID 3 days): 34 ± 5 (n = 7) % of control
- AG/Total-ghrelin (% of vehicle control) (GOAT enzyme; 3 mg/kg oral BID 3 days): 18 ± 1 (n = 7) % of vehicle control
- UAG (% of vehicle control) (GOAT enzyme; 3 mg/kg oral BID 3 days): 290 ± 30 (n = 7) % of vehicle control
- IC50 (human GOAT): 149 ± 46 nM
